Structures are written as SMILES. Values joined by “and” are separate entries in the source; they are usually repeats but may differ in a detail not shown here. Equal entries are not always repeated.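 Values below derive from 48-hour exposures of cells grown in 96-well plates, with endpoints linearly interpolated between the two concentrations bracketing the appropriate inhibition level. At the GI50, growth is halved. TGI denotes the concentration required for complete inhibition of growth.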 Where a SMILES comes first, the peptide text is derived from it. [ ]: non-standard residue; d: D form. The star is where a group is joined. ξ: configuration not given here. Propanoyl(3-(4-MeO-Ph)) = COc1ccc(CCC(=O)*)cc1; Thr(3ξ) = CC(O)[C@H](N)C(=O)O; dNMeL = CN[C@H](CC(C)C)C(=O)O; OBn = c1ccc(CO*)cc1; ξLac = CC(O)C(=O)O

Test systems include CCRF-CEM leukemia; NCI-H522 lung; RPMI-8226 leukemia; RXF 393 renal; SK-MEL-2 melanoma; SK-MEL-28 melanoma; SN12C renal; SW-620 colon; TK-10 renal; U251 CNS.
Holding throughout (assay): NCI tumour cell line growth inhibition, 48 h

As to `COc1ccc(CCC(=O)OC(C)[C@H](NC(=O)[C@@H](CC(C)C)N(C)C(=O)[C@@H]2CCCN2C(=O)C(C)O)C(=O)OCc2ccccc2)cc1` (stereo not given in full) (H-[ξLac]P[dNMeL][Thr(3ξ)](Propanoyl(3-(4-MeO-Ph)))-OBn), the TGI stood at 68.9 µM in the assay with CCRF-CEM leukemia; 50.4 µM in the assay on NCI-H522 lung; 80.6 µM with RPMI-8226 leukemia; 44.7 µM in the assay on RXF 393 renal; 36.9 µM in the assay on SK-MEL-2 melanoma; 32.9 µM in the assay with SK-MEL-28 melanoma. The TGI in the assay on SN12C renal, in the assay on SW-620 colon, in the assay with TK-10 renal and in the assay on U251 CNS was > 100 µM throughout.

As to `CN(C)CCCN=c1cc2c(=O)n(CCCN(C)C)c(=O)c3c(NCCCN(C)C)cc4c(O)n(CCCN(C)C)c(=O)c1c4c3-2`, the GI50 is 5.84 µM with CCRF-CEM leukemia; 0.781 µM in the assay on NCI-H522 lung; 4.18 µM in the assay on RPMI-8226 leukemia; 1.77 µM with RXF 393 renal; 1.37 µM in the assay on SK-MEL-2 melanoma; 1.96 µM in the assay on SK-MEL-28 melanoma. In addition, the GI50 in the assay on SN12C renal was 1.73 µM; in the assay on SW-620 colon, 0.79 µM; with TK-10 renal, 1.55 µM; with U251 CNS, 0.418 µM. Moreover, the TGI was found to be 54.8 µM in the assay with CCRF-CEM leukemia; 2.76 µM with NCI-H522 lung; 46.1 µM in the assay with RPMI-8226 leukemia; 4.44 µM in the assay with RXF 393 renal; 5.08 µM in the assay on SK-MEL-2 melanoma; 4.79 µM in the assay with SK-MEL-28 melanoma. Besides, the TGI in the assay with SN12C renal stood at 30.9 µM; in the assay on SW-620 colon it was 15.6 µM; in the assay with TK-10 renal it was 5.95 µM; in the assay on U251 CNS, 11 µM.

In the case of `c1ccc2c(c1)nnn2CNc1ccc(N2CCOCC2)cc1`, the TGI with CCRF-CEM leukemia, in the assay on NCI-H522 lung, with RPMI-8226 leukemia, in the assay with RXF 393 renal, with SK-MEL-2 melanoma and with SK-MEL-28 melanoma was > 100 µM in each case. Moreover, the TGI in the assay with SN12C renal, in the assay on SW-620 colon, in the assay on TK-10 renal and in the assay on U251 CNS was > 100 µM each time.

Regarding `O=C1/C(=C/c2ccccc2Br)COc2ccc(O)c(O)c21`, the GI50 is 0.311 µM in the assay with CCRF-CEM leukemia; 0.196 µM with NCI-H522 lung; 0.261 µM in the assay with RPMI-8226 leukemia; 1.66 µM in the assay with RXF 393 renal; 1.97 µM in the assay with SK-MEL-2 melanoma; 1.94 µM with SK-MEL-28 melanoma. In addition, the GI50 in the assay with SN12C renal is 0.937 µM; in the assay with SW-620 colon, 1.34 µM; in the assay on TK-10 renal, 2.01 µM; in the assay with U251 CNS, 1.09 µM. Moreover, the TGI was 1.55 µM in the assay on CCRF-CEM leukemia; 0.494 µM with NCI-H522 lung; 0.682 µM in the assay with RPMI-8226 leukemia; 3.22 µM with RXF 393 renal; 4.82 µM with SK-MEL-2 melanoma; 4.42 µM with SK-MEL-28 melanoma. Besides, the TGI came out at 3.62 µM in the assay on SN12C renal, 4.44 µM in the assay with SW-620 colon, 4.09 µM with TK-10 renal and 2.33 µM in the assay with U251 CNS.

`COc1cc2c(Nc3ccc(Br)cc3F)ncnc2cc1OCC1CCN(C)CC1`: the GI50 with CCRF-CEM leukemia is 4.71 µM and > 10 µM; in the assay on NCI-H522 lung, 2 µM and 1.28 µM; in the assay on RPMI-8226 leukemia, 3.33 µM and 6.84 µM; in the assay with RXF 393 renal, 1.44 µM and 1.29 µM; in the assay with SK-MEL-2 melanoma, 5.33 µM and > 10 µM; in the assay on SK-MEL-28 melanoma, 1.68 µM and 1.78 µM. Further, the GI50 is 1.58 µM and 3.04 µM in the assay with SN12C renal; 4.69 µM and > 10 µM in the assay on SW-620 colon; 0.317 µM and 0.54 µM in the assay with TK-10 renal; 4.81 µM and 7.68 µM in the assay with U251 CNS. The TGI with CCRF-CEM leukemia is 17.5 µM and > 10 µM; in the assay with NCI-H522 lung it was 7.31 µM and > 10 µM; in the assay on RPMI-8226 leukemia it was 14 µM and > 10 µM; with RXF 393 renal it was 4.77 µM and 8.32 µM; with SK-MEL-2 melanoma, 10.9 µM and > 10 µM; with SK-MEL-28 melanoma it was 3.27 µM and 4.2 µM. For the same molecule, the TGI was 12.1 µM and > 10 µM with SN12C renal; 15.7 µM and > 10 µM with SW-620 colon; 6.58 µM and > 10 µM in the assay on TK-10 renal; 17.1 µM and > 10 µM in the assay with U251 CNS.

Consider `COc1cc2ccc(/C(C)=N/OC(C)=O)cc2cc1OC`, for which the TGI with CCRF-CEM leukemia, in the assay with NCI-H522 lung, in the assay with RPMI-8226 leukemia, in the assay with RXF 393 renal, with SK-MEL-2 melanoma and in the assay on SK-MEL-28 melanoma was > 100 µM throughout. Moreover, the TGI in the assay with SN12C renal, with SW-620 colon, in the assay with TK-10 renal and in the assay on U251 CNS was > 100 µM each time.

On to `CC1=C2C(=O)C(C)(C)C=C2C(=O)[C@](C)(O)C12CC2`, for which the TGI with CCRF-CEM leukemia was > 1 µM; with NCI-H522 lung, 0.7 µM; in the assay on RPMI-8226 leukemia, > 1 µM; in the assay on RXF 393 renal, > 1 µM; in the assay on SK-MEL-2 melanoma, > 1 µM; in the assay on SK-MEL-28 melanoma it was > 1 µM. Besides, the TGI in the assay with SN12C renal, in the assay with SW-620 colon, with TK-10 renal and in the assay with U251 CNS was > 1 µM in each case.

As to `NC(=O)c1cc(Cl)ccc1NC(=O)c1ccccc1-c1ccccc1`, the GI50 was 0.499 µM in the assay on CCRF-CEM leukemia; 0.289 µM with NCI-H522 lung; 2.1 µM with RPMI-8226 leukemia; 0.806 µM in the assay with RXF 393 renal; 0.288 µM in the assay with SK-MEL-2 melanoma; 3.65 µM with SK-MEL-28 melanoma. The GI50 in the assay on SN12C renal is 1.78 µM; with SW-620 colon, 0.412 µM; in the assay with TK-10 renal, 3.69 µM; in the assay with U251 CNS, 0.65 µM. The TGI was > 100 µM in the assay with CCRF-CEM leukemia; 0.988 µM in the assay on NCI-H522 lung; > 100 µM in the assay with RPMI-8226 leukemia; 5.52 µM in the assay with RXF 393 renal; 0.799 µM in the assay on SK-MEL-2 melanoma; > 100 µM with SK-MEL-28 melanoma. Besides, the TGI in the assay on SN12C renal was > 100 µM; in the assay with SW-620 colon, > 100 µM; in the assay on TK-10 renal it was 48 µM; in the assay on U251 CNS, > 100 µM.

`C[C@@H](Oc1cc(NS(=O)(=O)N2CCC2)nc(SCc2cccc(F)c2F)n1)[C@@H](O)CO`: the GI50 in the assay with CCRF-CEM leukemia, with NCI-H522 lung, in the assay with RPMI-8226 leukemia, with RXF 393 renal, in the assay with SK-MEL-2 melanoma and in the assay with SK-MEL-28 melanoma was > 100 µM each time. Moreover, the GI50 in the assay on SN12C renal, in the assay on SW-620 colon, in the assay on TK-10 renal and in the assay on U251 CNS was > 100 µM each time. For the same molecule, the TGI with CCRF-CEM leukemia, in the assay on NCI-H522 lung, in the assay on RPMI-8226 leukemia, in the assay with RXF 393 renal, with SK-MEL-2 melanoma and in the assay with SK-MEL-28 melanoma was > 100 µM in each case. Moreover, the TGI in the assay on SN12C renal, with SW-620 colon, with TK-10 renal and in the assay on U251 CNS was > 100 µM in each case.
